Experimental data: PubChem BioAssay (NCI)
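How tested: cells in 96-well plates exposed to compound for 48 hours at five concentrations. At the GI50, growth is halved. TGI: concentration producing complete growth inhibition.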

Experiments:
Assay in all cases: DTP human tumour cell line panel, 48 h
KM12 colon = tested on: KM12 colon
UO-31 renal = tested on: UO-31 renal
786-0 renal = tested on: 786-0 renal
HCC-2998 colon = tested on: HCC-2998 colon
NCI-H460 lung = tested on: NCI-H460 lung
SNB-75 CNS = tested on: SNB-75 CNS
A498 renal = tested on: A498 renal
SF-295 CNS = tested on: SF-295 CNS
HCT-116 colon = tested on: HCT-116 colon
RPMI-8226 leukemia = tested on: RPMI-8226 leukemia
HOP-92 NSCLC = tested on: HOP-92 NSCLC
MCF7 breast = tested on: MCF7 breast
HS 578T breast = tested on: HS 578T breast
NCI-H226 lung = tested on: NCI-H226 lung
MOLT-4 leukemia = tested on: MOLT-4 leukemia
COLO 205 colon = tested on: COLO 205 colon
K-562 leukemia = tested on: K-562 leukemia
IGROV1 ovarian = tested on: IGROV1 ovarian
M14 melanoma = tested on: M14 melanoma
DU-145 prostate = tested on: DU-145 prostate
HL-60(TB) leukemia = tested on: HL-60(TB) leukemia
LOX IMVI melanoma = tested on: LOX IMVI melanoma
SK-MEL-2 melanoma = tested on: SK-MEL-2 melanoma
SK-MEL-28 melanoma = tested on: SK-MEL-28 melanoma
T-47D breast = tested on: T-47D breast
SK-MEL-5 melanoma = tested on: SK-MEL-5 melanoma
NCI-H23 lung = tested on: NCI-H23 lung
SF-268 CNS = tested on: SF-268 CNS
SW-620 colon = tested on: SW-620 colon
A549 NSCLC = tested on: A549 NSCLC
CAKI-1 renal = tested on: CAKI-1 renal
EKVX NSCLC = tested on: EKVX NSCLC
OVCAR-5 ovarian = tested on: OVCAR-5 ovarian
NCI-H522 lung = tested on: NCI-H522 lung
BT-549 breast = tested on: BT-549 breast
HOP-62 NSCLC = tested on: HOP-62 NSCLC
PC-3 prostate = tested on: PC-3 prostate
CCRF-CEM leukemia = tested on: CCRF-CEM leukemia
MALME-3M melanoma = tested on: MALME-3M melanoma
U251 CNS = tested on: U251 CNS
UACC-62 melanoma = tested on: UACC-62 melanoma
HT29 colon = tested on: HT29 colon
TK-10 renal = tested on: TK-10 renal
MDA-MB-231 breast = tested on: MDA-MB-231 breast
OVCAR-3 ovarian = tested on: OVCAR-3 ovarian
OVCAR-4 ovarian = tested on: OVCAR-4 ovarian
SF-539 CNS = tested on: SF-539 CNS
SR leukemia = tested on: SR leukemia
OVCAR-8 ovarian = tested on: OVCAR-8 ovarian
ACHN renal = tested on: ACHN renal
MDA-MB-435 = tested on: MDA-MB-435
HCT-15 colon = tested on: HCT-15 colon
RXF 393 renal = tested on: RXF 393 renal
SK-OV-3 ovarian = tested on: SK-OV-3 ovarian
UACC-257 melanoma = tested on: UACC-257 melanoma
SNB-19 CNS = tested on: SNB-19 CNS
NCI/ADR-RES ovarian = tested on: NCI/ADR-RES ovarian
SN12C renal = tested on: SN12C renal

O=C(CNc1c(Cl)cccc1Cl)Nc1ccc(-c2nc3ccccc3s2)cc1
GI50 (KM12 colon): 2.62 µM
TGI (KM12 colon): 6.94 µM
GI50 (UO-31 renal): 3.62 µM
TGI (UO-31 renal): 9.13 µM
GI50 (786-0 renal): 1.78 µM
TGI (786-0 renal): 3.76 µM
GI50 (HCC-2998 colon): 2.11 µM
TGI (HCC-2998 colon): 4.29 µM
GI50 (NCI-H460 lung): 2.69 µM
TGI (NCI-H460 lung): 7.96 µM
GI50 (SNB-75 CNS): 2.42 µM
TGI (SNB-75 CNS): 8.22 µM
GI50 (A498 renal): 8.93 µM
TGI (A498 renal): 23.4 µM
GI50 (SF-295 CNS): 15.6 µM
TGI (SF-295 CNS): 30.2 µM
GI50 (HCT-116 colon): 1.98 µM
TGI (HCT-116 colon): 4.93 µM
GI50 (RPMI-8226 leukemia): 2.44 µM
TGI (RPMI-8226 leukemia): > 22.8 µM
GI50 (HOP-92 NSCLC): 1.66 µM
TGI (HOP-92 NSCLC): 4.45 µM
GI50 (MCF7 breast): 0.0913 µM
TGI (MCF7 breast): 5.7 µM
GI50 (HS 578T breast): 5.11 µM
TGI (HS 578T breast): 67.8 µM
GI50 (NCI-H226 lung): 2.17 µM
TGI (NCI-H226 lung): 5.72 µM
GI50 (MOLT-4 leukemia): 0.666 µM
TGI (MOLT-4 leukemia): > 27.3 µM
GI50 (COLO 205 colon): 2.33 µM
TGI (COLO 205 colon): 4.81 µM
GI50 (K-562 leukemia): 1.24 µM
TGI (K-562 leukemia): > 33.9 µM
GI50 (IGROV1 ovarian): 2.3 µM
TGI (IGROV1 ovarian): 5.85 µM
GI50 (M14 melanoma): 2.05 µM
TGI (M14 melanoma): 5.52 µM
GI50 (DU-145 prostate): 3.41 µM
TGI (DU-145 prostate): 10.7 µM
GI50 (HL-60(TB) leukemia): 2.37 µM
TGI (HL-60(TB) leukemia): 7.5 µM
GI50 (LOX IMVI melanoma): 1.39 µM
TGI (LOX IMVI melanoma): 2.88 µM
GI50 (SK-MEL-2 melanoma): 3.32 µM
TGI (SK-MEL-2 melanoma): 12.4 µM
GI50 (SK-MEL-28 melanoma): 2.61 µM
TGI (SK-MEL-28 melanoma): 7.31 µM
GI50 (T-47D breast): 1.89 µM
TGI (T-47D breast): 5.37 µM
GI50 (SK-MEL-5 melanoma): 1.61 µM
TGI (SK-MEL-5 melanoma): 3.3 µM
GI50 (NCI-H23 lung): 2.06 µM
TGI (NCI-H23 lung): 4.58 µM
GI50 (SF-268 CNS): 2.4 µM
TGI (SF-268 CNS): 6.44 µM
GI50 (SW-620 colon): 2.2 µM
TGI (SW-620 colon): 4.9 µM
GI50 (A549 NSCLC): 5.83 µM
TGI (A549 NSCLC): 26.6 µM
GI50 (CAKI-1 renal): 2.26 µM
TGI (CAKI-1 renal): 5.79 µM
GI50 (EKVX NSCLC): 11.2 µM
TGI (EKVX NSCLC): 28.2 µM
GI50 (OVCAR-5 ovarian): 2.53 µM
TGI (OVCAR-5 ovarian): 7.79 µM
GI50 (NCI-H522 lung): 1.56 µM
TGI (NCI-H522 lung): 3.61 µM
GI50 (BT-549 breast): 1.72 µM
TGI (BT-549 breast): 4.64 µM
GI50 (HOP-62 NSCLC): 6.8 µM
TGI (HOP-62 NSCLC): 21.3 µM
GI50 (PC-3 prostate): 1.66 µM
TGI (PC-3 prostate): 3.52 µM
GI50 (CCRF-CEM leukemia): 0.485 µM
GI50 (MALME-3M melanoma): 1.85 µM
TGI (MALME-3M melanoma): 3.75 µM
GI50 (U251 CNS): 2.06 µM
TGI (U251 CNS): 4.65 µM
GI50 (UACC-62 melanoma): 1.71 µM
TGI (UACC-62 melanoma): 3.87 µM
GI50 (HT29 colon): 2.16 µM
TGI (HT29 colon): 4.76 µM
GI50 (TK-10 renal): 2.04 µM
TGI (TK-10 renal): 4.69 µM
GI50 (MDA-MB-231 breast): 2.67 µM
TGI (MDA-MB-231 breast): 7.31 µM
GI50 (OVCAR-3 ovarian): 1.97 µM
TGI (OVCAR-3 ovarian): 3.73 µM
GI50 (OVCAR-4 ovarian): 1.95 µM
TGI (OVCAR-4 ovarian): 5.19 µM
GI50 (SF-539 CNS): 1.88 µM
TGI (SF-539 CNS): 3.62 µM
GI50 (SR leukemia): 0.797 µM
TGI (SR leukemia): > 23.1 µM
GI50 (OVCAR-8 ovarian): 3.01 µM
TGI (OVCAR-8 ovarian): > 29.8 µM
GI50 (ACHN renal): 1.97 µM
TGI (ACHN renal): 3.93 µM
GI50 (MDA-MB-435): 2.64 µM
TGI (MDA-MB-435): 10.9 µM
GI50 (HCT-15 colon): 1.78 µM
TGI (HCT-15 colon): 5.28 µM
GI50 (RXF 393 renal): 4.15 µM
TGI (RXF 393 renal): 9.73 µM
GI50 (SK-OV-3 ovarian): 9.11 µM
TGI (SK-OV-3 ovarian): 70.6 µM
GI50 (UACC-257 melanoma): 4.27 µM
TGI (UACC-257 melanoma): 16.6 µM
GI50 (SNB-19 CNS): 3.14 µM
TGI (SNB-19 CNS): 12.5 µM
GI50 (NCI/ADR-RES ovarian): 3.22 µM
TGI (NCI/ADR-RES ovarian): 9.89 µM
GI50 (SN12C renal): 2.31 µM
TGI (SN12C renal): 7.1 µM
